Test results: article PMC10866072, “Design, synthesis, molecular modelling and biological evaluation of novel 6-amino-5-cyano-2-thiopyrimidine derivatives as potent anticancer agents against leukemia and apoptotic inducers” (Journal of Enzyme Inhibition and Medicinal Chemistry, 2024)

Experiments:
[1] = tested on: RPMI-8226; format: cell-based; settings: Homo sapiens, one dose 10^-5 M, 48 h
[2] = tested on: T-47D; format: cell-based; settings: Homo sapiens, T47D, one dose 10^-5 M, 48 h, read-out: % growth
[3] = tested on: HS 578T; format: cell-based; settings: Homo sapiens; one dose 10^-5 M, 48 h; HS 578T; read-out: % growth
[4] = tested on: HL-60(TB); format: cell-based; settings: Homo sapiens, one dose 10^-5 M, 48 h
[5] = tested on: SW-620; format: cell-based; settings: Homo sapiens, one dose 10^-5 M, 48 h
[6] = tested on: EKVX; format: cell-based; settings: Homo sapiens, one dose 10^-5 M, 48 h
[7] = tested on: UO-31; format: cell-based; settings: Homo sapiens, UO-31, 48 h, one dose 10^-5 M, 48 h
[8] = tested on: HCC-2998; format: cell-based; settings: Homo sapiens, one dose 10^-5 M, 48 h
[9] = tested on: KM12; format: cell-based; settings: Homo sapiens, one dose 10^-5 M, 48 h
[10] = tested on: U251; format: cell-based; settings: Homo sapiens, U-251, one dose 10^-5 M, 48 h
[11] = tested on: CCRF-CEM; format: cell-based; settings: Homo sapiens, one dose 10^-5 M, 48 h
[12] = tested on: A549/ATCC; format: cell-based; settings: Homo sapiens, one dose 10^-5 M, 48 h
[13] = tested on: UACC-257; format: cell-based; settings: Homo sapiens, one dose 10^-5 M, 48 h
[14] = tested on: HT29; format: cell-based; settings: Homo sapiens, HT-29, one dose 10^-5 M, 48 h
[15] = tested on: MDA-MB-231/ATCC; format: cell-based; settings: Homo sapiens, one dose 10^-5 M, 48 h
[16] = tested on: TK-10; format: cell-based; settings: Homo sapiens, one dose 10^-5 M, 48 h
[17] = tested on: A498; format: cell-based; settings: Homo sapiens, one dose 10^-5 M, 48 h
[18] = tested on: PC-3; format: cell-based; settings: Homo sapiens, one dose 10^-5 M, 48 h
[19] = tested on: ACHN; format: cell-based; settings: Homo sapiens, one dose 10^-5 M, 48 h
[20] = tested on: CAKI-1; format: cell-based; settings: Homo sapiens, CAKI-1, 48 h, one dose 10^-5 M, 48 h
[21] = tested on: SK-OV-3; format: cell-based; settings: Homo sapiens, one dose 10^-5 M, 48 h
[22] = tested on: MDA-MB-435; format: cell-based; settings: Homo sapiens, one dose 10^-5 M, 48 h, read-out: % growth
[23] = tested on: HCT-15; format: cell-based; settings: Homo sapiens, one dose 10^-5 M, 48 h, read-out: % growth
[24] = tested on: NCI/ADR-RES; format: cell-based; settings: Homo sapiens, one dose 10^-5 M, 48 h
[25] = tested on: SF-295; format: cell-based; settings: Homo sapiens, one dose 10^-5 M, 48 h
[26] = tested on: SK-MEL-28; format: cell-based; settings: Homo sapiens, one dose 10^-5 M, 48 h
[27] = tested on: OVCAR-4; format: cell-based; settings: Homo sapiens, one dose 10^-5 M, 48 h
[28] = tested on: SK-MEL-5; format: cell-based; settings: Homo sapiens, one dose 10^-5 M, 48 h, read-out: % growth
[29] = tested on: NCI-H226; format: cell-based; settings: Homo sapiens, one dose 10^-5 M, 48 h
[30] = tested on: HOP-62; format: cell-based; settings: Homo sapiens, one dose 10^-5 M, 48 h
[31] = tested on: SR; format: cell-based; settings: Homo sapiens, one dose 10^-5 M, 48 h
[32] = tested on: OVCAR-5; format: cell-based; settings: Homo sapiens, one dose 10^-5 M, 48 h
[33] = tested on: full NCI 60 cell lines panel; settings: for activity at 10 µM: Homo sapiens, 60 cell, 48 h, read-out: Mean % growth
[34] = tested on: NCI-H23; format: cell-based; settings: Homo sapiens, one dose 10^-5 M, 48 h, read-out: % growth
[35] = tested on: SNB-19; format: cell-based; settings: Homo sapiens, one dose 10^-5 M, 48 h, read-out: % growth
[36] = tested on: IGROV1; format: cell-based; settings: Homo sapiens, IGROV-1, one dose 10^-5 M, 48 h, read-out: % growth
[37] = tested on: M14; format: cell-based; settings: Homo sapiens, one dose 10^-5 M, 48 h
[38] = tested on: SN12C; format: cell-based, human; settings: Homo sapiens, one dose 10^-5 M, 48 h
[39] = tested on: MCF7; format: cell-based; settings: Homo sapiens, one dose 10^-5 M, 48 h, read-out: % growth
[40] = tested on: UACC-62; format: cell-based; settings: Homo sapiens, one dose 10^-5 M, 48 h
[41] = tested on: NCI-H460; format: cell-based; settings: Homo sapiens, one dose 10^-5 M, 48 h, read-out: % growth
[42] = tested on: RXF 393; format: cell-based; settings: Homo sapiens, RXF 393, 48 h, one dose 10^-5 M, 48 h, read-out: % growth
[43] = tested on: OVCAR-8; format: cell-based; settings: Homo sapiens, one dose 10^-5 M, 48 h
[44] = tested on: COLO 205; format: cell-based; settings: Homo sapiens, one dose 10^-5 M, 48 h
[45] = tested on: DU-145; format: cell-based; settings: Homo sapiens, one dose 10^-5 M, 48 h
[46] = tested on: SK-MEL-2; format: cell-based; settings: Homo sapiens, one dose 10^-5 M, 48 h
[47] = tested on: MALME-3M; format: cell-based; settings: Homo sapiens, one dose 10^-5 M, 48 h
[48] = tested on: K-562; format: cell-based; settings: Homo sapiens, K562, one dose 10^-5 M, 48 h
[49] = tested on: 786-0; format: cell-based; settings: Homo sapiens, one dose 10^-5 M, 48 h
[50] = tested on: LOX IMVI; format: cell-based; settings: Homo sapiens, one dose 10^-5 M, 48 h, read-out: % growth
[51] = tested on: MDA-MB-468; format: cell-based; settings: Homo sapiens, one dose 10^-5 M, 48 h
[52] = tested on: SF-268; format: cell-based; settings: Homo sapiens, one dose 10^-5 M, 48 h, read-out: % growth
[53] = tested on: HOP-92; format: cell-based; settings: Homo sapiens, one dose 10^-5 M, 48 h
[54] = tested on: OVCAR-3; format: cell-based; settings: Homo sapiens, one dose 10^-5 M, 48 h
[55] = tested on: HCT-116; format: cell-based; settings: Homo sapiens, one dose 10^-5 M, 48 h, read-out: % growth
[56] = tested on: NCI-H522; format: cell-based; settings: Homo sapiens, one dose 10^-5 M, 48 h
[57] = tested on: MOLT-4; format: cell-based; settings: Homo sapiens, one dose 10^-5 M, 48 h, read-out: % growth
[58] = tested on: BT-549; format: cell-based; settings: Homo sapiens, one dose 10^-5 M, 48 h
[59] = tested on: SF-539; format: cell-based; settings: Homo sapiens, one dose 10^-5 M, 48 h

## N=C(NN=Cc1ccc([N+](=O)[O-])cc1)c1c(N)nc(S)nc1-c1ccc(Cl)cc1Cl [Compound 4o, 4-amino-6–(2,4-dichlorophenyl)-2-mercapto-N'-[(4-nitrophenyl)methylene] pyrimidine-5-carboximidohydrazide]
[1]
  % growth at 10 µM: 97.3%
[2]
  activity at 10 µM: 95.3%
[3]
  activity at 10 µM: 87.1%
[4]
  % growth at 10 µM: 103%
[5]
  % growth at 10 µM: 108%
[6]
  % cell growth at 10 µM: 98.9%
[7]
  % cell growth at 10 µM: 98.3%
[8]
  % growth at 10 µM: 106%
[9]
  % growth at 10 µM: 108%
[10]
  % growth at 10 µM: 67%
[11]
  % cell growth at 10 µM: 106%
[12]
  % growth at 10 µM: 101%
[13]
  percent cell growth at 10 µM: 104%
[14]
  % growth at 10 µM: 116%
[15]
  % growth at 10 µM: 77.5%
[16]
  % cell growth at 10 µM: 142%
[17]
  % growth at 10 µM: 160%
[18]
  percent cell growth at 10 µM: 96.8%
[19]
  % growth at 10 µM: 88.8%
[20]
  % growth at 10 µM: 78.8%
[21]
  % growth at 10 µM: 89.1%
[22]
  activity at 10 µM: 108%
[23]
  activity at 10 µM: 103%
[24]
  cell growth percent at 10 µM: 105%
[25]
  % cell growth at 10 µM: 52.4%
[26]
  % cell growth at 10 µM: 113%
[27]
  % growth at 10 µM: 111%
[28]
  activity at 10 µM: 104%
[29]
  % growth at 10 µM: 82.1%
[30]
  % growth at 10 µM: 57%
[31]
  percent cell growth at 10 µM: 76.8%
[32]
  percent cell growth at 10 µM: 111%
[33]
  activity at 10 µM: 93.5%
[34]
  activity at 10 µM: 90.2%
[35]
  activity at 10 µM: 74.9%
[36]
  activity at 10 µM: 94.9%
[37]
  % growth at 10 µM: 102%
[38]
  % growth at 10 µM: 96.1%
[39]
  activity at 10 µM: 88.2%
[40]
  % growth at 10 µM: 84.7%
[41]
  activity at 10 µM: 114%
[42]
  activity at 10 µM: 73%
[43]
  % growth of cells at 10 µM: 98.4%
[44]
  % growth at 10 µM: 115%
[45]
  % growth at 10 µM: 115%
[46]
  % growth at 10 µM: 93.4%
[47]
  % growth at 10 µM: 73%
[48]
  % growth at 10 µM: 95%
[49]
  % growth at 10 µM: 54.1%
[50]
  activity at 10 µM: 96.5%
[51]
  percent cell growth at 10 µM: 90.8%
[52]
  activity at 10 µM: 94.9%
[53]
  % growth at 10 µM: 2.04%
[54]
  % growth at 10 µM: 110%
[55]
  activity at 10 µM: 85.2%
[56]
  % growth at 10 µM: 78.5%
[57]
  activity at 10 µM: 94%
[58]
  % cell growth at 10 µM: 75.7%
[59]
  % growth at 10 µM: 74.7%

## COc1ccc(C=NNC(=N)c2c(N)nc(S)nc2-c2ccc(Cl)cc2Cl)cc1 [Compound 4p, 4-amino-6–(2,4-dichlorophenyl)-2-mercapto-N'-[(4-methoxyphenyl)methylene] pyrimidine-5-carboximidohydrazide]
[1]
  % growth at 10 µM: 99.4%
[2]
  activity at 10 µM: 100%
[3]
  activity at 10 µM: 105%
[4]
  % growth at 10 µM: 96.9%
[5]
  % growth at 10 µM: 105%
[6]
  % cell growth at 10 µM: 108%
[7]
  % cell growth at 10 µM: 97.7%
[8]
  % growth at 10 µM: 118%
[9]
  % growth at 10 µM: 104%
[10]
  % growth at 10 µM: 103%
[11]
  % cell growth at 10 µM: 99.1%
[12]
  % growth at 10 µM: 102%
[13]
  percent cell growth at 10 µM: 103%
[14]
  % growth at 10 µM: 106%
[15]
  % growth at 10 µM: 90.5%
[16]
  % cell growth at 10 µM: 143%
[17]
  % growth at 10 µM: 138%
[18]
  percent cell growth at 10 µM: 98.9%
[19]
  % growth at 10 µM: 110%
[20]
  % growth at 10 µM: 97.3%
[21]
  % growth at 10 µM: 108%
[22]
  activity at 10 µM: 113%
[23]
  activity at 10 µM: 106%
[24]
  cell growth percent at 10 µM: 114%
[25]
  % cell growth at 10 µM: 85.8%
[26]
  % cell growth at 10 µM: 112%
[27]
  % growth at 10 µM: 122%
[28]
  activity at 10 µM: 105%
[29]
  % growth at 10 µM: 97.2%
[30]
  % growth at 10 µM: 90.2%
[31]
  percent cell growth at 10 µM: 97.5%
[32]
  percent cell growth at 10 µM: 117%
[33]
  activity at 10 µM: 104%
[33]; one dose
  activity on all 60 cancer cell lines tested (in words): weak activity
[34]
  activity at 10 µM: 100%
[35]
  activity at 10 µM: 93%
[36]
  activity at 10 µM: 108%
[37]
  % growth at 10 µM: 107%
[38]
  % growth at 10 µM: 108%
[39]
  activity at 10 µM: 91.5%
[40]
  % growth at 10 µM: 97.2%
[41]
  activity at 10 µM: 113%
[42]
  activity at 10 µM: 94.5%
[43]
  % growth of cells at 10 µM: 103%
[44]
  % growth at 10 µM: 127%
[45]
  % growth at 10 µM: 110%
[46]
  % growth at 10 µM: 115%
[47]
  % growth at 10 µM: 89.4%
[48]
  % growth at 10 µM: 102%
[49]
  % growth at 10 µM: 90.2%
[50]
  activity at 10 µM: 103%
[51]
  percent cell growth at 10 µM: 105%
[52]
  activity at 10 µM: 104%
[53]
  % growth at 10 µM: 74.8%
[54]
  % growth at 10 µM: 113%
[55]
  activity at 10 µM: 99.8%
[56]
  % growth at 10 µM: 97.5%
[57]
  activity at 10 µM: 95.7%
[58]
  % cell growth at 10 µM: 95.6%
[59]
  % growth at 10 µM: 96.8%
